B1: AmpC (Escherichia coli), Q83TT7 (peptide)
chain: MFKTTLCALLITASCSTFAA

Assays:
Pseudomonas aeruginosa [1] = experiment: Antimicrobial activity against Pseudomonas aeruginosa B4 by broth dilution method; format: functional
Pseudomonas aeruginosa [2] = experiment: Antimicrobial activity against oprD protein deficient Pseudomonas aeruginosa C2 by broth dilution method; format: functional
Pseudomonas aeruginosa [3] = experiment: Antimicrobial activity against Pseudomonas aeruginosa BA(C2-107) selected after 25 ug/ml of compound exposure by broth dilution method; format: functional
Pseudomonas aeruginosa [4] = experiment: Antimicrobial activity against Pseudomonas aeruginosa BA by broth dilution method; format: functional
Pseudomonas aeruginosa [5] = experiment: Antimicrobial activity against mexAB-oprM protein and mexZ deficient Pseudomonas aeruginosa PAO267 by broth dilution method; format: functional
Pseudomonas aeruginosa [6] = details: PAO1
Description: Antimicrobial activity against Pseudomonas aeruginosa PAO1 by broth dilution method

Pseudomonas aeruginosa [7] = experiment: Antimicrobial activity against mexAB-oprM, mexCD-oprJ, mexEF-oprN, mexJK, mexXY, opmH and pscC gene deficient Pseudomonas aeruginosa PAO750 by broth dilution method; format: functional
Pseudomonas aeruginosa [8] = experiment: Antimicrobial activity against Pseudomonas aeruginosa by broth dilution method; format: functional
Acinetobacter sp. = experiment: Antimicrobial activity against Acinetobacter sp. by broth dilution method; format: functional
Pseudomonas aeruginosa [9] = experiment: Antimicrobial activity against mexAB-oprM protein and mexCD-oprJ deficient Pseudomonas aeruginosa PAO253 overexpressing MexEF-OprN gene by broth dilution method; format: functional
Pseudomonas aeruginosa [10] = experiment: Antimicrobial activity against Pseudomonas aeruginosa BA(C1-106) selected after 25 ug/ml of compound exposure by broth dilution method; format: functional
Pseudomonas aeruginosa [11] = experiment: Antimicrobial activity against mexAB-oprM protein and mexCD-oprJ deficient Pseudomonas aeruginosa PAO238 by broth dilution method; format: functional
[12] = substrate: CC1(C)[C@H](NC(=O)/C(=N\OCc2cc(=O)c(O)cn2O)c2csc(N)n2)C(=O)N1OS(=O)(=O)O; details: Escherichia coli; ATCC 25922
Description: (§1) Ratio of Kcat to Km for Escherichia coli ATCC 25922 AmpC

[13] = substrate: C[C@H]1[C@H](NC(=O)/C(=N\OC(C)(C)C(=O)O)c2csc(N)n2)C(=O)N1S(=O)(=O)O; details: Escherichia coli; ATCC 25922
Description: as §1

[14] = substrate: CC1(C)[C@H](NC(=O)/C(=N\OCc2cc(=O)c(O)cn2O)c2csc(N)n2)C(=O)N1OS(=O)(=O)O; details: Escherichia coli; ATCC 25922; remark: listed apart in the source
Description: (§2) Binding affinity to Escherichia coli ATCC 25922 AmpC

[15] = substrate: C[C@H]1[C@H](NC(=O)/C(=N\OC(C)(C)C(=O)O)c2csc(N)n2)C(=O)N1S(=O)(=O)O; details: Escherichia coli; ATCC 25922; remark: listed apart in the source
Description: as §2

| Molecule | MIC (Pseudomonas aeruginosa [1]) [µg/mL] | MIC (Pseudomonas aeruginosa [2]) [µg/mL] | MIC (Pseudomonas aeruginosa [3]) [µg/mL] | MIC (Pseudomonas aeruginosa [4]) [µg/mL] | MIC (Pseudomonas aeruginosa [5]) [µg/mL] | MIC (Pseudomonas aeruginosa [6]) [µg/mL] | MIC (Pseudomonas aeruginosa [7]) [µg/mL] | MIC50 (Pseudomonas aeruginosa [8]) [µg/mL] | MIC90 (Pseudomonas aeruginosa [8]) [µg/mL] | MIC50 (Acinetobacter sp.) [µg/mL] | MIC90 (Acinetobacter sp.) [µg/mL] | MIC (Pseudomonas aeruginosa [9]) [µg/mL] | MIC (Pseudomonas aeruginosa [10]) [µg/mL] | MIC (Pseudomonas aeruginosa [11]) [µg/mL] | kcat/Km [12] [M⁻¹ s⁻¹] | kcat/Km [13] [M⁻¹ s⁻¹] | Km [14] [µM] | kcat [14] [s⁻¹] | Km [15] [µM] | kcat [15] [s⁻¹] |
| --- | --- | --- | --- | --- | --- | --- | --- | --- | --- | --- | --- | --- | --- | --- | --- | --- | --- | --- | --- | --- |
| POLYMYXIN B | 2 | 4 | 4 | 4 | 8 | 8 | 8 | 4 | 8 | 4 | 32 | 4 | 2 | 8 | – | – | – | – | – | – |
| B1 | – | – | – | – | – | – | – | – | – | – | – | – | – | – | 38 | 2.9 | 100 | 0.004 | 21 | 6e-05 |

Reference: ChEMBL document CHEMBL1255477, “In vitro properties of BAL30072, a novel siderophore sulfactam with activity against multiresistant gram-negative bacilli” (Antimicrob Agents Chemother, 2010)
